PubChem BioAssay AID1918940 (Molecular Pharmacology Branch, DTP, NCI, 2023)
Several values for one entry are separate records, joined by “and”; a condition that tells them apart may be missing. Equal values may be shown once.

System: NCI-H211 complex spheroid viability
Experiment: Anticancer human tumor NCI-H211 cell line growth inhibition [LSD1];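 also: luminescent viability read after seven days of drug exposure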;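 as to viability, T/C: 100% = DMSO vehicle control viability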
Conditions: for viability, T/C: stronger effect = lower value; for IC50: curve of compound
Description: Multicellular complex tumor spheroid response to LSD1 Inhibitor Iadademstat in combination with a variety of drugs and investigational agents in selected tumor cell lines
The current study was undertaken to assess response to LSD1 inhibitors in combination with standard-of-care drugs and investigational agents in solid tumor complex spheroid models as well as in the K-562 leukemia. Complex spheroids include a stromal component modeled by human endothelial cells (HUVEC) and fibroblasts modeled by human mesenchymal stem cells (MSCs). The concentration ranges selected for each drug and investigational agent were based upon clinically achievable concentrations if the clinical Cmax of the agent was known.
Compounds. The drugs and investigational agents used in this study are listed on Table 1. All of the agents used, including staurosporine (NSC755774) and gemcitabine (NSC613327), were obtained from the Developmental Therapeutics Program, NCI. FDA-approved anticancer drugs are available from the NCI at http://dtp.nci.nih.gov/branches/dscb/oncology_drugset_explanation.html. Drugs and investigational agents were >95% pure by proton nuclear magnetic resonance (NMR) and liquid chromatography/mass spectrometry (LC/MS). Stock solutions were prepared at 400x in DMSO, stored at -70 degrees C, and diluted in fresh medium prior to their use. The final concentration of DMSO in cell culture wells never exceeded 0.25% (v/v). The FDA-approved anticancer drug set is available from the Developmental Therapeutics Program at https://dtp.cancer.gov/organization/dscb/obtaining/available_plates.htm. All drugs and investigational agents were tested over a range starting from a high concentration at or near the clinical Cmax and decreasing in half-log increments. If the clinical Cmax for an agent had not been determined, the highest concentration tested was 10 microM.
Cell Lines. The patient-derived cancer cell (PDC) lines: 292921-168-R-J2-PDC, K24384-001-R-PDC, and 521955-158-R2-J5-PDC pancreatic carcinomas, 556581-035-R-J1 ovarian carcinoma, 324938-238-R-J1-PDC, 855422-203-R-J1-PDC and 883617-216-R-J1-PDC urothelial bladder carcinomas, 743489-274-T-PDC renal cell carcinoma, 138582-R-J1 Merkel cell tumor, K60290-347-R-J1 and K57222-313-R-J1-PDC glioblastomas, 653999-131-R-J2-PDC, LG0703-F948-PDC, and 349418-098-R-PDC non-small cell lung carcinomas, 885512-296-R-J2-PDC, 171881-019-R-J1-PDC breast carcinomas and 186277-243-T-J2-PDC and 233499-124-R-J2-PDC colon carcinomas were obtained from the NCI Patient-Derived Models Repository (PDMR, https://pdmr.cancer.gov). The established cell lines NCI/ADR-RES (RRID:CVCL_14520 and OVCAR-5 (RRID:CVCL_1628) ovarian carcinomas, 786-O (RRID:CVCL_1051) and A498 (RRID:CVCL_A498) renal cell carcinoma, NCI-H211 (ATCC, cat. CRL-5824; RRID:CVCL_1529), NCI-H196 (ATCC, cat. CRL-5823, RRID:CVCL_1509), SW 1271 (ATCC, cat. CRL-2177, RRID:CVCL_1716) and NCI-H1876 (ATCC, cat. CRL-5902, RRID:CVCL_1503) small cell lung carcinomas, MDA-MB-231 (RRID:CVCL_0062) and MDA-MB-468 (RRID:CVCL_0419)breast carcinomas (10-12). Pooled donor human umbilical vein endothelial cells (HUVEC, Lonza, cat. CC-2519) and human mesenchymal stem cells (hMSC, Lonza, cat. PT-2501) were purchased from Lonza (Walkersville, MD).
Cell Culture. All cells were maintained in an incubator at 37 degrees C and 5% CO2 with 95% humidity. The PDC lines were cultured according to standard operating procedures established by the NCI PDMR (https://pdmr.cancer.gov). Briefly all PDCs were thawed and cultured in Matrigel-coated flasks prepared with a working solution of 1X Ham's F-12 nutrient mix, without supplementation (Invitrogen, Waltham, MA, cat. 11765054), 100 U/mL penicillin-streptomycin (Invitrogen, cat. 15140122), and 2.5% Matrigel (Corning Inc., Corning, NY, cat. 354248) for the first three passages. […]

Structure (SMILES)	IC50	viability, T/C (compound 0.000316 µM)	viability, T/C (compound 0.001 µM)	viability, T/C (compound 0.00316 µM)	viability, T/C (compound 0.01 µM)	viability, T/C (compound 0.0316 µM)	viability, T/C (compound 0.1 µM)	viability, T/C (compound 0.316 µM)	viability, T/C (compound 1 µM)	viability, T/C (compound 3.16 µM)	viability, T/C (compound 10 µM)	viability, T/C (compound 0.00949 µM)	viability, T/C (compound 0.03 µM)	viability, T/C (compound 0.0949 µM)	viability, T/C (compound 0.3 µM)	viability, T/C (compound 0.949 µM)	viability, T/C (compound 3 µM)	viability, T/C (compound 0.000949 µM)	viability, T/C (compound 0.003 µM)
CC(C)CC(NC(=O)C(Cc1ccccc1)NC(=O)c1cnccn1)B(O)O (stereo not drawn)	2.13 nM and 2.1 nM	109% and 100%	96.9% and 86.8%	25.4% and 29.6%	6.26% and 1.54%	0.16% and 0.2%	0.16% and 0.32%												
CC(C)c1c(-c2ccccc2)nc2c(C#N)c[nH]n2c1=O	> 10000 nM					104% and 81.5%	127% and 88%	103% and 68.7%	114% and 68.7%	98.9% and 67%	97.3% and 75.2%								
CC1(C)CCC(CN2CCN(c3ccc(C(=O)NS(=O)(=O)c4ccc(NCC5CCOCC5)c([N+](=O)[O-])c4)c(Oc4cnc5[nH]ccc5c4)c3)CC2)=C(c2ccc(Cl)cc2)C1						95.3% and 36.1%	98.2% and 43.8%	98.3% and 47.9%	124% and 72.7%	118% and 99.6%	32.2% and 60.1%								
CCN(c1cc(-c2ccc(CN3CCOCC3)cc2)cc(C(=O)NCc2c(C)cc(C)[nH]c2=O)c1C)C1CCOCC1	> 3000 nM and 1390 nM											122% and 86.1%	108% and 75.3%	100% and 68.3%	97.3% and 54.6%	96.4% and 52.2%	93.8% and 47.7%		
COc1cc(Nc2ncc3c(n2)-c2ccc(Cl)cc2C(c2c(F)cccc2OC)=NC3)ccc1C(=O)O	< 3.16 nM			44.2% and 45.2%	8.97% and 8.03%	5.37% and 3.95%	4.19% and 5.61%	3.59% and 4.36%	3.38% and 3.29%										
NC1CCC(NC2CC2c2ccccc2)CC1 (stereo not drawn)								74.9% [middle of 4 runs]			36.1% [middle of 23 runs]								
Nc1ccccc1NC(=O)c1ccc(CNC(=O)OCc2cccnc2)cc1	31.3 nM and 22.1 nM											106% and 110%	51.8% and 28.6%	5.07% and 4.05%	1.34% and 3.99%	0.93% and 2.1%	0.2% and 0.22%		
Nc1ncn(C2CC(O)C(CO)S2)c(=O)n1 (stereo not drawn)	1.89 nM and < 0.949 nM											9.28% and 10.7%	3.02% and 5.29%	1.96% and 4.56%	2.36% and 4.76%			74.8% and 46.6%	33.3% and 23.1%
O=C(C=Cn1cnc(-c2cc(C(F)(F)F)cc(C(F)(F)F)c2)n1)NNc1cnccn1	< 3.16 nM and 4.13 nM			45.9% and 53.7%	24% and 37.6%	11.7% and 14.6%	4.91% and 5.02%	1.61% and 2.32%	1.37% and 2.1%										

Continued, in another order:

IC50	Structure (SMILES)	viability, T/C (compound 0.000316 µM)	viability, T/C (compound 0.001 µM)	viability, T/C (compound 0.00316 µM)	viability, T/C (compound 0.01 µM)	viability, T/C (compound 0.0316 µM)	viability, T/C (compound 0.1 µM)	viability, T/C (compound 0.316 µM)	viability, T/C (compound 1 µM)	viability, T/C (compound 3.16 µM)	viability, T/C (compound 10 µM)	viability, T/C (compound 0.00949 µM)	viability, T/C (compound 0.03 µM)	viability, T/C (compound 0.0949 µM)	viability, T/C (compound 0.3 µM)	viability, T/C (compound 0.949 µM)	viability, T/C (compound 3 µM)	viability, T/C (compound 0.000949 µM)	viability, T/C (compound 0.003 µM)
14.4 nM and 8.63 nM	CC(C)CC(NC(=O)CNC(=O)c1cc(Cl)ccc1Cl)B1OC(=O)CC(CC(=O)O)(C(=O)O)O1 (stereo not drawn)	125% and 105%	114% and 102%	112% and 115%	65.5% and 41.5%	16% and 14%	3.55% and 4.35%												
4.96 nM and < 3.16 nM	CC1COCCN1c1cc(-c2ccnn2C)c2ccnc(-c3ccn[nH]3)c2n1 (stereo not drawn)			68.4% and 38.3%	21.5% and 14%	4.05% and 7.88%	2.34% and 6.02%	2.16% and 5.04%	2.28% and 5.77%										
299 nM and 405 nM	CC1COCCN1c1cc(C2(S(C)(=N)=O)CC2)nc(-c2ccnc3[nH]ccc23)n1 (stereo not drawn)					84.3% and 102%	72.6% and 81.8%	49.4% and 63.4%	20.4% and 14.6%	4.23% and 5.02%	2.56% and 2.74%								
0.447 nM and 0.455 nM	CC[C@@]1(O)C(=O)OCc2c1cc1n(c2=O)Cc2cc3c(CN(C)C)c(O)ccc3nc2-1	66.6% and 67%	11.4% and 13.2%	2.8% and 5.22%	2.3% and 5.28%	2.56% and 5.04%	0.87% and 3.38%												
< 0.949 nM	CCc1c2c(nc3ccc(O)cc13)-c1cc3c(c(=O)n1C2)COC(=O)[C@]3(O)CC											0.42% and 1.27%	0.59% and 0.51%	0.14% and 0.18%	0.21% and 0.25%			1.09% and 3.31%	0.88% and 2.36%
14.7 nM and < 9.49 nM	COc1cc(C2c3cc4c(cc3C(OC3OC5COC(C)OC5C(O)C3O)C3COC(=O)C23)OCO4)cc(OC)c1O (stereo not drawn)											71.3% and 48.3%	15.2% and 13.1%	2.55% and 6.21%	2.41% and 5.04%	2.11% and 6.22%	2.35% and 5.42%		
4700 nM and 4950 nM	COc1ccc([C@@H](O)c2cc(-c3ncnc4cc(N5CCOCC5)ccc34)c(F)cc2Cl)nn1					108% and 89.2%	96.5% and 86.3%	93.7% and 94.2%	103% and 87.4%	70.8% and 76.6%	10.4% and 8.12%								
2.79 nM and 2.01 nM	Cn1ncnc1C1c2n[nH]c(=O)c3cc(F)cc(c23)NC1c1ccc(F)cc1 (stereo not drawn)	102% and 103%	94.9% and 82.6%	44.8% and 29%	5.27% and 6.62%	8.07% and 5.97%	3.43% and 6.43%												
< 9.49 nM	NS(=O)(=O)OCC1CC(n2ccc3c(NC4CCc5ccccc54)ncnc32)CC1O (stereo not drawn)											27% and 23.2%	11.8% and 10.5%	2.66% and 3.81%	6.35% and 1.26%	0.58% and 0.97%	0.31% and 0.53%		
< 0.949 nM	Nc1ccn(C2OC(CO)C(O)C2(F)F)c(=O)n1 (stereo not drawn)											7.87% and 4.04%	2.08% and 4.19%	2.85% and 4.27%	2.42% and 5%			2.49% and 5.54%	2.72% and 4.15%
< 3.16 nM	Nc1ncn(C2CC(O)C(CO)O2)c(=O)n1 (stereo not drawn)			35.4% and 37.7%	21.4% and 19%	9.11% and 7%	2.47% and 4.09%	1.77% and 5.19%	1.67% and 4.71%										
< 9.49 nM	O=C(C=Cc1cccc(S(=O)(=O)Nc2ccccc2)c1)NO											28.4% and 18.3%	3.38% and 8.21%	2.69% and 7.91%	2.15% and 6.02%	0.94% and 1.35%	0.17% and 0.22%		
46.4 nM and 36.9 nM	O=C(c1cc(Cc2n[nH]c(=O)c3ccccc23)ccc1F)N1CCN(C(=O)C2CC2)CC1					59.8% and 54.5%	30.3% and 22.6%	6.95% and 9.45%	3.01% and 7.35%	2.95% and 7.77%	2.77% and 6.06%								
